Experimental data: US20130065227A1, “METHODS OF INCREASING MACROPINOCYTOSIS IN CANCER CELLS” (priority 2010, published 2013)

Legend:
Hs27 = assay: Stimulation of macropinocytosis (dextran uptake); format: cell-based, human; conditions: 10 μM for 24, 48, or 72 h, flow cytometry
Procedure: (Panel A) DU145 cells were treated with 10 μM tAS1411 or 10 μM tCRO or no oligonucleotide in complete DMEM medium at 37° C. for the time indicated. After treatment, cell medium was changed for fresh complete medium containing 0.2 mg/ml dextran-10K labeled with Alexa Fluor 488, and cells were incubated for 30 min at 37° C. After incubation, cells were harvested and analyzed by flow cytometry to determine dextran uptake. (Panel B) The same experiment was performed using Hs27 cells. (Panel C) DU145 cells were treated with 10 μM tAS1411 or 10 μM tCRO or no oligonucleotide in complete DMEM medium at 37° C. for 48 h. […]
(§1) AS1411 causes a change in cancer cell morphology that is characterized by vacuolization, irregular nuclei, and swollen cells (Xu et al., 2001, J. Biol. Chem., 276:43221-30). […] To test this idea, DU145 cells were pre-treated for 24 h with tAS1411, then added FL-AS1411 and evaluated uptake after an additional 2 h using flow cytometry. […] This idea is not necessarily inconsistent with the time course data shown in FIG. 1A because the fluorescence signal may decrease over time for a number of reasons, including exocytosis of the ligand and fluorescence quenching due to protein binding or environmental factors (the fluorophore used for flow cytometry is particularly sensitive to acidic environments). […]

MCF10A = assay: Stimulation of macropinocytosis (dextran uptake); format: cell-based, human; conditions: MCF-10A, 10 μM for 48 hr or 72 hr
Procedure: FIG. 10 are graphs showing the stimulation of macropinocytosis by GROs. Breast carcinoma cells (MDA-MB-231, MCF-7) or non-malignant breast epithelial cells (MCF10A) cells were plated 18 hr before treatment with 10 μM tAS1411 or 10 μM tCRO or water in complete DMEM medium at 37° C. for 48 hr or 72 hr. After treatment, cell medium was changed for fresh complete medium containing 0.2 mg/ml dextran-10K labeled with Alexa Fluor 488 and cells were incubated for 30 min at 37° C. Cells were then incubated on ice with 1 mg/ml PI in PBS, harvested, and analyzed by flow cytometry. Uptake was normalized to no pre-treatment controls and bars show the mean and SE of three independent experiments. […]
as §1

DU145 = assay: Stimulation of macropinocytosis (dextran uptake); format: cell-based
Procedure: (Panel A) DU145 cells were treated with 10 μM tAS1411 or 10 μM tCRO or no oligonucleotide in complete DMEM medium at 37° C. for the time indicated. After treatment, cell medium was changed for fresh complete medium containing 0.2 mg/ml dextran-10K labeled with Alexa Fluor 488, and cells were incubated for 30 min at 37° C. After incubation, cells were harvested and analyzed by flow cytometry to determine dextran uptake. (Panel B) The same experiment was performed using Hs27 cells. (Panel C) DU145 cells were treated with 10 μM tAS1411 or 10 μM tCRO or no oligonucleotide in complete DMEM medium at 37° C. for 48 h. After treatment, cell medium was changed for fresh complete medium containing 0.2 mg/ml dextran-10K tagged with Alexa Fluor 488, and cells were incubated for 30 min at 37° C. Then, cells were washed with cold PBS, added PBS containing 5 μg/ml PI and incubated on ice for 5 min. After washing with cold PBS, cells were fixed and the distribution of macropinocytic marker was visualized by confocal microscopy. The nucleus was stained with DAPI (blue). Scale bars, 10 μm. All experiments have been repeated at least three times. Data are mean of three independent samples; bars, SE; *(p<0.05).
FIG. 6 are graphs showing that nucleolin regulates AS1411-induced stimulation of macropinocytosis. DU145 cells were untreated (no transfection) or transfected, without siRNA (mock), or with 30 nM of one of three different nucleolin siRNAs (NCL1, NCL2, NCL3) or a control siRNA (scramble). 48 h after transfection, cells were incubated with 10 μM tAS1411, 10 μM tCRO, or no oligonucleotide in complete DMEM medium at 37° C. for 24 h. (Panel A) After treatment, cell medium was changed for fresh complete medium containing 0.2 mg/ml dextran-10K labeled with Alexa Fluor 488 (green) and incubated for 30 min at 37° C. (Panel B) After treatment, some cells were washed, fresh complete medium containing 10 μM FL-AS1411 added and incubated for 2 h at 37° C. After incubation, cells were harvested and analyzed by flow cytometry. Mean fluorescence was normalized to “not transfected” control (Panel A) or to no pre-treatment control (Panel B). All experiments have been repeated at least three times. Data are the mean of three independent samples; bars, SE; *(p<0.05).
FIG. 11 is a graph showing a comparison between AS1411 and tAS1411 in the ability to stimulate macropinocytosis. DU145 cells were plated 18 hr before treatment with different concentrations (0, 5, 10, or 15 μM) of AS1411, tAS1411 or tCRO in complete DMEM medium at 37° C. for 48 h. After treatment, cell medium was changed for fresh complete medium containing 0.2 mg/ml dextran-10K labeled with Alexa Fluor 488, and cells were incubated for 30 min at 37° C. After incubation, cells were incubated on ice with […] PI in PBS, harvested, fixed and immediately analyzed by flow cytometry.
(§2) To analyze uptake of the oligodeoxynucleotides or dextran-10K (macropinocytic marker) by flow cytometry, 2×10^5 cells in fresh supplemented culture medium (2.5 ml) were plated into 6-well plates for 18 h. After complete adhesion, the cells were incubated with 5′-FAM tagged oligodeoxynucleotides or Alexa Fluor 488 tagged dextran-10K and incubated as indicated in the Description of the Drawings. Cells were washed once with ice-cold PBS, incubated with 1 μg/ml 7-amino-actinomycin D (7-AAD) for 5 min on ice or 1 μg/ml propidium iodide (PI), and washed twice with ice-cold PBS. Cells were then treated with 0.01% trypsin/0.5 mM EDTA (300 μl) for 3 min prior addition 3 ml supplemented culture medium. The cells were then centrifuged and resuspended in 0.5 ml of 1% paraformaldehyde for analysis by flow cytometry using a FACScalibur cytometer (BD Biosciences, Mountain View, Calif.).
AS1411 causes a change in cancer cell morphology that is characterized by vacuolization, irregular nuclei, and swollen cells (Xu et al., 2001, J. Biol. Chem., 276:43221-30). […]

MCF7 = assay: Stimulation of macropinocytosis (dextran uptake); format: cell-based; conditions: MCF-7, 10 μM for 48 hr or 72 hr
Procedure: (§3) FIG. 10 are graphs showing the stimulation of macropinocytosis by GROs. Breast carcinoma cells (MDA-MB-231, MCF-7) or non-malignant breast epithelial cells (MCF10A) cells were plated 18 hr before treatment with 10 μM tAS1411 or 10 μM tCRO or water in complete DMEM medium at 37° C. for 48 hr or 72 hr. After treatment, cell medium was changed for fresh complete medium containing 0.2 mg/ml dextran-10K labeled with Alexa Fluor 488 and cells were incubated for 30 min at 37° C. Cells were then incubated on ice with 1 mg/ml PI in PBS, harvested, and analyzed by flow cytometry. Uptake was normalized to no pre-treatment controls and bars show the mean and SE of three independent experiments.
as §2
(§4) AS1411 causes a change in cancer cell morphology that is characterized by vacuolization, irregular nuclei, and swollen cells (Xu et al., 2001, J. Biol. Chem., 276:43221-30). Therefore, the effect of AS1411 on macropinocytosis in DU145 cells and non-malignant Hs27 cells was investigated. […] As in all of the flow cytometry experiments, cells were gated to exclude permeable cells, discounting the possibility that this increase was due to cell death. […] One implication of the finding that AS1411 causes hyperstimulation of macropinocytosis is that treatment of AS1411 might actually promote its own internalization by cancer cells. To test this idea, DU145 cells were pre-treated for 24 h with tAS1411, then added FL-AS1411 and evaluated uptake after an additional 2 h using flow cytometry. […] This idea is not necessarily inconsistent with the time course data shown in FIG. 1A because the fluorescence signal may decrease over time for a number of reasons, including exocytosis of the ligand and fluorescence quenching due to protein binding or environmental factors (the fluorophore used for flow cytometry is particularly sensitive to acidic environments). […]

MDA-MB-231 = assay: Stimulation of macropinocytosis (dextran uptake); format: cell-based; conditions: MDA-MB-231, 10 μM for 48 hr or 72 hr
Procedure: as §3, §2, §4

DU145 cells = assay: FL-AS1411 uptake after tAS1411 pre-treatment (flow cytometry); format: cell-based; conditions: 10 μM pre-treatment for 24 h, then 10 μM FL-AS1411 2 h
Procedure: FIG. 6 are graphs showing that nucleolin regulates AS1411-induced stimulation of macropinocytosis. DU145 cells were untreated (no transfection) or transfected, without siRNA (mock), or with 30 nM of one of three different nucleolin siRNAs (NCL1, NCL2, NCL3) or a control siRNA (scramble). 48 h after transfection, cells were incubated with 10 μM tAS1411, 10 μM tCRO, or no oligonucleotide in complete DMEM medium at 37° C. for 24 h. (Panel A) After treatment, cell medium was changed for fresh complete medium containing 0.2 mg/ml dextran-10K labeled with Alexa Fluor 488 (green) and incubated for 30 min at 37° C. […] After incubation, cells were harvested and analyzed by flow cytometry. Mean fluorescence was normalized to “not transfected” control (Panel A) or to no pre-treatment control (Panel B). […]
FIG. 12 are graphs showing the effectiveness of pre-treatment of cells with a GRO. […] After incubation, cells were incubated on ice with 1 mg/ml PI in PBS, harvested, fixed and immediately analyzed by flow cytometry. […]
AS1411 causes a change in cancer cell morphology that is characterized by vacuolization, irregular nuclei, and swollen cells (Xu et al., 2001, J. Biol. Chem., 276:43221-30). […] To test this idea, DU145 cells were pre-treated for 24 h with tAS1411, then added FL-AS1411 and evaluated uptake after an additional 2 h using flow cytometry. […]

Hs27 cells = assay: as above; format: cell-based, human; conditions: 10 μM pre-treatment for 24 h, then 10 μM FL-AS1411 2 h
Procedure: FIG. 12 are graphs showing the effectiveness of pre-treatment of cells with a GRO. DU145 or Hs27 cells were treated with or without 10 μM tAS1411 in complete DMEM medium at 37° C. for 24 h. After treatment, cells were washed, fresh complete medium containing 10 μM FL-AS1411 was added, and cells were incubated for a further 2 h at 37° C. After incubation, cells were incubated on ice with 1 mg/ml PI in PBS, harvested, fixed and immediately analyzed by flow cytometry.
To analyze uptake of the oligodeoxynucleotides or dextran-10K (macropinocytic marker) by flow cytometry, 2×10^5 cells in fresh supplemented culture medium (2.5 ml) were plated into 6-well plates for 18 h. […]
AS1411 causes a change in cancer cell morphology that is characterized by vacuolization, irregular nuclei, and swollen cells (Xu et al., 2001, J. Biol. Chem., 276:43221-30). […] To test this idea, DU145 cells were pre-treated for 24 h with tAS1411, then added FL-AS1411 and evaluated uptake after an additional 2 h using flow cytometry. […] This idea is not necessarily inconsistent with the time course data shown in FIG. 1A because the fluorescence signal may decrease over time for a number of reasons, including exocytosis of the ligand and fluorescence quenching due to protein binding or environmental factors (the fluorophore used for flow cytometry is particularly sensitive to acidic environments).

## 5′-d(TTTGGTGGTGGTGGTTGTGGTGGTGGTGG) [tAS1411]
Hs27
  uptake of the macropinocytic marker, dextran, after treatment: no increase
MCF10A
  stimulation of macropinocytosis: much reduced effect
DU145; 10 μM for 24, 48, or 72 h, flow cytometry
  uptake of the macropinocytic marker, dextran, after treatment: significant increment in the uptake of the macropinocytic marker, dextran
DU145; 10 μM for 48 h, versus untreated or CRO-treated cells
  dextran uptake by confocal microscopy: higher dextran uptake confined in large vesicle
MCF7
  stimulation of macropinocytosis: induce hyperstimulation of macropinocytosis
MDA-MB-231
  stimulation of macropinocytosis: induce hyperstimulation of macropinocytosis
DU145 cells
  uptake of FL-AS1411 after pre-treatment: increase in the uptake of FL-AS1411
Hs27 cells
  uptake of FL-AS1411 after pre-treatment: no comparable increase
